Measurements: patent US20230257396A1, “MACROCYCLES AND THEIR USE” (BLOSSOMHILL THERAPEUTICS, INC., priority 2020, published 2023)

How the values were obtained:
Assay in all cases: KINOMEscan kinase binding assay (Eurofins/DiscoveRx), % Ctrl
kinases [1] = molecular target: T1, kinases (Homo sapiens, UniProt P10721, T670I/V559D)
T1 construct: purchased Eurofins/DiscoveRx; host or cells: E. coli BL21-derived host (T7 phage display) for most kinases; HEK-293 for the rest
Method in brief: (§1)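 Read-out is qPCR of kinase eluted from ligand-coated streptavidin beads after 1 h room-temperature competition with test compound. Values are % Ctrl at the tested concentration, lower meaning tighter binding.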

kinases [2] = molecular target: T2, kinases (Homo sapiens, UniProt P00533, G719S)
T2 construct: purchased Eurofins/DiscoveRx; host or cells: E. coli BL21-derived host (T7 phage display) for most kinases; HEK-293 for the rest
Method in brief: as §1

kinases [3] = molecular target: T3, kinases (Homo sapiens, UniProt P16234)
T3 construct: purchased Eurofins/DiscoveRx; host or cells: E. coli BL21-derived host (T7 phage display) for most kinases; HEK-293 for the rest
Method in brief: as §1

kinases [4] = molecular target: T4, kinases (Homo sapiens, UniProt P00519, T315I)
T4 construct: purchased Eurofins/DiscoveRx; host or cells: E. coli BL21-derived host (T7 phage display) for most kinases; HEK-293 for the rest
Method in brief: as §1

kinases [5] = molecular target: T5, kinases (Homo sapiens, UniProt P42684)
T5 construct: purchased Eurofins/DiscoveRx; host or cells: E. coli BL21-derived host (T7 phage display) for most kinases; HEK-293 for the rest
Method in brief: as §1

kinases [6] = molecular target: T6, kinases (Homo sapiens, UniProt P36888, K663Q)
T6 construct: purchased Eurofins/DiscoveRx; host or cells: E. coli BL21-derived host (T7 phage display) for most kinases; HEK-293 for the rest
T6 sequence (P36888 27-993 K663Q): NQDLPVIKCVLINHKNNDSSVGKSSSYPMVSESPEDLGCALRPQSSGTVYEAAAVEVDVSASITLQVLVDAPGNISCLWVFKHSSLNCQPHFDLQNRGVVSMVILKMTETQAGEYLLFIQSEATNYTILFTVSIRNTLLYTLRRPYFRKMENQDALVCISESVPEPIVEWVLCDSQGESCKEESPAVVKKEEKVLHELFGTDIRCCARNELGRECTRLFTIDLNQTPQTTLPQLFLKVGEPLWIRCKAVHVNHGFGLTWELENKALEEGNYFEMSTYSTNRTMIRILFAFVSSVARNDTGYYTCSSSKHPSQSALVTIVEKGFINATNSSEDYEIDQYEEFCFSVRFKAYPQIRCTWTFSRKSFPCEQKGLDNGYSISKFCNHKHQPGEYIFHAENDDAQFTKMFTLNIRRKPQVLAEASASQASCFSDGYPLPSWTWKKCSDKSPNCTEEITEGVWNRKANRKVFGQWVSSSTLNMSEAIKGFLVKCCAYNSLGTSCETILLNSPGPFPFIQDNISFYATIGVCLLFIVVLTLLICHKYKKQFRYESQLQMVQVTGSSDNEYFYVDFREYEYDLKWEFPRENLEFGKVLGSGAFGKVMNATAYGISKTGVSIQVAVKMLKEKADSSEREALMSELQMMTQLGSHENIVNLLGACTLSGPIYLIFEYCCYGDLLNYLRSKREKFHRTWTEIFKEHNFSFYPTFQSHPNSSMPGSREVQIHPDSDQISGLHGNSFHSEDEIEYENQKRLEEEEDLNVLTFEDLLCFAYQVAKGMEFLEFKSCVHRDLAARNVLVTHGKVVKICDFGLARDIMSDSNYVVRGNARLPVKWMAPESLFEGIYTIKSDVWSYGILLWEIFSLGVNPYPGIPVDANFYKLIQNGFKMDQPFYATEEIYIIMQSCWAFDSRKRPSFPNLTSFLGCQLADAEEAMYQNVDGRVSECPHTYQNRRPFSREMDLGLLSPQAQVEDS
Method in brief: as §1

T3 sequence (P16234 24-1089): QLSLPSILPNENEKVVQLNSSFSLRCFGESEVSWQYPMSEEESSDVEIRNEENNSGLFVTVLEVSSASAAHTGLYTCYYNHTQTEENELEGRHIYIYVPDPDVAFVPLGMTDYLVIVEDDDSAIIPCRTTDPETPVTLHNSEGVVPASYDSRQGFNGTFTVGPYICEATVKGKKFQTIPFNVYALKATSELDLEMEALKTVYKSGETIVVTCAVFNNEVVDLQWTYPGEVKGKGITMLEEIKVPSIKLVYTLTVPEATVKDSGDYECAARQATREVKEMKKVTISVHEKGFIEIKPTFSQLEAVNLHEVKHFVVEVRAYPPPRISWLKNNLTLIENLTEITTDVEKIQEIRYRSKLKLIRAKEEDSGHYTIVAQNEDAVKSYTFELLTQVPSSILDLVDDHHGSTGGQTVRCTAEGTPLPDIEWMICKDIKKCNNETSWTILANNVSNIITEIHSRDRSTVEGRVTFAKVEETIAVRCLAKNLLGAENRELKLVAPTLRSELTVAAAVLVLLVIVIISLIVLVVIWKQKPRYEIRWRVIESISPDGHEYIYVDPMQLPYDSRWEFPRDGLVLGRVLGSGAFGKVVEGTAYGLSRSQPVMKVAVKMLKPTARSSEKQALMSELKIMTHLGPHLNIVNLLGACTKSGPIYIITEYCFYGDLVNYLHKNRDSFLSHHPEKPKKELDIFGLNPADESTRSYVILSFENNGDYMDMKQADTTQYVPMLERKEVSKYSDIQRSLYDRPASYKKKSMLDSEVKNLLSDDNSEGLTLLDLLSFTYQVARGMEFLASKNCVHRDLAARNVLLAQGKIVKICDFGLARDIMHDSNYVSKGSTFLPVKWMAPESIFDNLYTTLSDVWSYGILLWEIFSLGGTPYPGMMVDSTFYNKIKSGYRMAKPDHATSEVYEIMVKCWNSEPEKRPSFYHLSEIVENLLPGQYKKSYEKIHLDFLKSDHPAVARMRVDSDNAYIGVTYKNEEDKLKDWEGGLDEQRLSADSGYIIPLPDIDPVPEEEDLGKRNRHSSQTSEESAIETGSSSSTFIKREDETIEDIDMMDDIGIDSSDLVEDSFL
T1 sequence (P10721 26-976 V559D/T670I): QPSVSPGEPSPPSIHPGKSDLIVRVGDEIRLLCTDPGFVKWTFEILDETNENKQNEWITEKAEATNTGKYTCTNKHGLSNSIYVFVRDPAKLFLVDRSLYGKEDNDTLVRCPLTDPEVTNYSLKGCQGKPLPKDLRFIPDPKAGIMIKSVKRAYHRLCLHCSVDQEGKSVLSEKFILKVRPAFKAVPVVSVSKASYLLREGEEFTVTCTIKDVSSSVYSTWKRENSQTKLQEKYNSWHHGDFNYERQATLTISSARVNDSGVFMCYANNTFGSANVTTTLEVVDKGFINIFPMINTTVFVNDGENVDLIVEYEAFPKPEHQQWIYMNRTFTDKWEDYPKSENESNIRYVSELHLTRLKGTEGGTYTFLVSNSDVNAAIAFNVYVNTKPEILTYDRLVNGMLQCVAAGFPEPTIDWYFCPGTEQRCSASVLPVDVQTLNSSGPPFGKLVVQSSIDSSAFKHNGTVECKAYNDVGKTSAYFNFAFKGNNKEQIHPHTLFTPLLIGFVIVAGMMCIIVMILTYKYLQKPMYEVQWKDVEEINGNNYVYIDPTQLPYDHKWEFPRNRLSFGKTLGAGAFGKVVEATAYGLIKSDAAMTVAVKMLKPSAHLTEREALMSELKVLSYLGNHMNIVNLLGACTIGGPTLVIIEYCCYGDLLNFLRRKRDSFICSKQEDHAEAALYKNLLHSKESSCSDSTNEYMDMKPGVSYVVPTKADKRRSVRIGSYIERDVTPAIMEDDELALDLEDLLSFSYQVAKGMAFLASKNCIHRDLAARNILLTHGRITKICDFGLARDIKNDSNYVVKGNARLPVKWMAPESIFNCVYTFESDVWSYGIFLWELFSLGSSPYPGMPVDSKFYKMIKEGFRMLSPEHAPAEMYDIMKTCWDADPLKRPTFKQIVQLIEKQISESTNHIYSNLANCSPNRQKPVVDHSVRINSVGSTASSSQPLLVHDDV
T5 sequence (P42684 whole entry): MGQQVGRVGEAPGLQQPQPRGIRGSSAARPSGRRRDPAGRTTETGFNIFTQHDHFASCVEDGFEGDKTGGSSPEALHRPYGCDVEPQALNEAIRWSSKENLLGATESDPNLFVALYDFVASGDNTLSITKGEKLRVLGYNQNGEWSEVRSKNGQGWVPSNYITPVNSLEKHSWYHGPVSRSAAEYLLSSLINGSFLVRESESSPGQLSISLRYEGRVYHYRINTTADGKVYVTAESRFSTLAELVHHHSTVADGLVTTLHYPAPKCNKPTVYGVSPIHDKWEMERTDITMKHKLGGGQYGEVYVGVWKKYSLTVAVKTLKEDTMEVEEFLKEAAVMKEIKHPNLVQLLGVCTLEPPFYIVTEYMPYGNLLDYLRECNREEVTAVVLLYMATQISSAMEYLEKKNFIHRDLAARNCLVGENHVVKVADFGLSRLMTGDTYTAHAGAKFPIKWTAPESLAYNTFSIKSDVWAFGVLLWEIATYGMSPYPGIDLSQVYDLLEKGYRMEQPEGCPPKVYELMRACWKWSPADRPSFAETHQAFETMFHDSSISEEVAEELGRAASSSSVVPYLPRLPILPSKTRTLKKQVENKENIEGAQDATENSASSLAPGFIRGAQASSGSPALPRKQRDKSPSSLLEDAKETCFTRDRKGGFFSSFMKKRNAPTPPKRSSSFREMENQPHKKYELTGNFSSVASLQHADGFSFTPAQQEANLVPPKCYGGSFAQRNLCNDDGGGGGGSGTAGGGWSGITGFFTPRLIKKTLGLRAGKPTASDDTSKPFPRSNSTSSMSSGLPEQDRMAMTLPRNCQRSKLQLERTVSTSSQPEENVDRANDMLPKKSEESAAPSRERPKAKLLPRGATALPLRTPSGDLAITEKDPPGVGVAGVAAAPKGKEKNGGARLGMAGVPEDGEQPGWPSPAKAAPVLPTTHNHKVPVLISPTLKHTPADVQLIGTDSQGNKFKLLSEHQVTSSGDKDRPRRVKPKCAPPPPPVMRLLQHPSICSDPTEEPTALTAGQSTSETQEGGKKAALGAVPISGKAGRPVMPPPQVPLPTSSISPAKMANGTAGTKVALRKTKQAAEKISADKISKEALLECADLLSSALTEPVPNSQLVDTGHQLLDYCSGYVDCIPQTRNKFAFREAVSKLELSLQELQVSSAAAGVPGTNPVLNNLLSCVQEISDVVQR

## Cc1cc2c([nH]1)/C=C1\C(=O)Nc3cc(Cl)c(cc31)OCCO[C@@H](C(=O)NC1CNC1)CN(C)C2=O [Ex. 133, [7R,16a(17)Z]-N-(azetidin-3-yl)-19-chloro-2,5-dimethyl-4,16-dioxo-4,5,6,7,9,10,15,16-octahydro-1H-12,14-(ethanediylidene)dipyrrolo[3,2-i:3′,4′-l][1,4,7]dioxazacyclopentadecine-7-carboxamide]
Kinases [1]; 1 μM; KIT(V559D, T670I)
  % Ctrl, KIT(V559D, T670I): 7.4 % Ctrl
Kinases [2]; 1 μM; EGFR(G719S)
  % Ctrl, EGFR(G719S): 99 % Ctrl
Kinases [3]; 1 μM; PDGFRA
  % Ctrl, PDGFRA: 70 % Ctrl
Kinases [4]; 1 μM; ABL1(T315I)-nonphosphorylated
  % Ctrl, ABL1(T315I)-nonphosphorylated: 94 % Ctrl
Kinases [4]; 1 μM; ABL1(T315I)-phosphorylated
  % Ctrl, ABL1(T315I)-phosphorylated: 78 % Ctrl
Kinases [5]; 1 μM; ABL2
  % Ctrl, ABL2: 96 % Ctrl
Kinases [6]; 1 μM; FLT3(K663Q)
  % Ctrl, FLT3(K663Q): 77 % Ctrl

## Cc1cc2c([nH]1)/C=C1\C(=O)Nc3ccc(cc31)-c1cnn(C)c1OCCCN(C)C2=O [Ex. 166, [3a(4)Z]-9,14-dimethyl-9,10,11,12-tetrahydro-14H-1,17-(ethanediylidene)pyrazolo[4,3-n]dipyrrolo[3,2-g:3′,4′-j][1,5]oxazacyclopentadecine-3,8(2H,5H)-dione]
Kinases [1]; 1 μM; target KIT(V559D, T670I)
  % Ctrl, KIT(V559D, T670I): 65 % Ctrl
Kinases [2]; 1 μM; target EGFR(G719S)
  % Ctrl, EGFR(G719S): 99 % Ctrl
Kinases [3]; 1 μM; target PDGFRA
  % Ctrl, PDGFRA: 50 % Ctrl
Kinases [4]; 1 μM; target ABL1(T315I)-nonphosphorylated
  % Ctrl, ABL1(T315I)-nonphosphorylated: 1.4 % Ctrl
Kinases [4]; 1 μM; target ABL1(T315I)-phosphorylated
  % Ctrl, ABL1(T315I)-phosphorylated: 1.2 % Ctrl
Kinases [5]; 1 μM; target ABL2
  % Ctrl, ABL2: 51 % Ctrl
Kinases [6]; 1 μM; target FLT3(K663Q)
  % Ctrl, FLT3(K663Q): 1.7 % Ctrl

## Cc1cc2c([nH]1)/C=C1\C(=O)Nc3ccc(cc31)-c1c(C)nn(C)c1COCCN(C)C2=O [Ex. 146, [3a(4)Z]-6,9,14,16-tetramethyl-10,11,13,14-tetrahydro-2H-1,17-(ethanediylidene)pyrazolo[4,3-m]dipyrrolo[3,2-f:3′,4′-i][1,4]oxazacyclopentadecine-3,8(5H,9H)-dione]
Kinases [1]; target KIT(V559D, T670I); 1 μM
  % Ctrl, KIT(V559D, T670I): 75 % Ctrl
Kinases [2]; target EGFR(G719S); 1 μM
  % Ctrl, EGFR(G719S): 84 % Ctrl
Kinases [3]; target PDGFRA; 1 μM
  % Ctrl, PDGFRA: 100 % Ctrl
Kinases [4]; target ABL1(T315I)-nonphosphorylated; 1 μM
  % Ctrl, ABL1(T315I)-nonphosphorylated: 64 % Ctrl
Kinases [4]; target ABL1(T315I)-phosphorylated; 1 μM
  % Ctrl, ABL1(T315I)-phosphorylated: 34 % Ctrl
Kinases [5]; target ABL2; 1 μM
  % Ctrl, ABL2: 83 % Ctrl
Kinases [6]; target FLT3(K663Q); 1 μM
  % Ctrl, FLT3(K663Q): 14 % Ctrl
